Assay results reported in patent publication US6228877A, “Substituted pyrroles” (Hoffmann-La Roche Inc., priority 1998, dated 2001).

Each molecule was assayed on epithelial breast carcinoma cell line (MDAMB-435) (assay: effect of compounds on growth of epithelial breast carcinoma cell line MDAMB-435 (MTT, 5 days)). Settings: Homo sapiens, MDA-MB-435, 120 h, MDAMB-435 cells, 5 days post drug addition, 0.1% DMSO.
Type: cell-based
Procedure: The epithelial breast carcinoma cell line (MDAMB-435) was purchased from ATCC (American Type Cell Culture Collection) and was grown in culture in medium as recommended by ATCC. For analysis of the effect of various compounds on growth of these cells, the cells were plated at a concentration of 1500 cells/well in a 96 well tissue culture plate ("test plate). The day after the cells were plated, the compounds to be analyzed were dissolved in 100% DMSO (dimethyl sulfoxide) to yield at 10 mM stock solution. Each compound was diluted in H2 O to 1 mM and was added to triplicate wells in the first row of a 96 well master plate which contains medium to yield a final concentration of 40 μM. The compounds were then serially diluted in medium in the "master plate". The diluted compound(s) were then transferred to test plates containing cells. A row of vehicle "control cells" received DMSO. The final concentration of DMSO in each well was 0.1%. 5 days post drug addition, the plate was analyzed as follows:
MTT (3-(4-5 methyl thiazole-2-yl)-2,5-diphenyl tetrazolium bromide; thiazolyl blue) was added to each well to yield a final concentration of 1 mg/ml. The plate was then incubated at 37° C. for 21/2-3 hours. The MTT containing medium was then removed and 50 μl of 100% ethanol was added to each well to dissolve the formazan. The absorbences were then read using an automated plate reader (Bio-tek microplate reader).
IC50 's were calculated using the Reed and Munsch equation, see Am. J. Hygiene Vol. 27 pgs. 493-497, 1938.
For `Cn1cc(C2=C(c3cn(C)c4cc([N+](=O)[O-])ccc34)C(=O)NC2=O)c2ccc([N+](=O)[O-])cc21` [H H NO2 NO2, 3,4-Bis-(1-methyl-6-nitro-1H-indol-3-yl)-pyrrole-2,5-dione], the IC50 was 0.07 µM. `COc1ccc2c(c1)c(C1=C(c3cn(C)c4cc(SC)ccc34)C(=O)NC1=O)cn2C` [H CH3 O H CH3 S, 3-(5-Methoxy-1-methyl-11H-indol-3-yl)-4-(1-methyl-6-methylsulfanyl-1H-indol-3-yl)-pyrrole-2,5-dione] gave an IC50 of 0.2 µM. Work on `COc1ccc2c(C3=C(c4cn(C)c5cc(Cl)ccc45)C(=O)NC3=O)cn(C)c2c1` [H H Cl OCH3, 3-(6-chloro-1-methyl-1H-indol-3-yl)-4-(6-methoxy-1-methyl-1H-indol-3-yl)-pyrrole-2,5-dione] yielded an IC50 of 0.007 µM. With `Cn1cc(C2=C(c3cn(C)c4cc([N+](=O)[O-])ccc34)C(=O)NC2=O)c2ccc(OCc3ccccc3)cc21` [H H NO2 Obenzyl, 3-(6-benzyloxy-1-methyl-1H-indol-3-yl)-4-(1-methyl-6-nitro-1H-indol-3-yl)-pyrrole-2,5-dione] the IC50 was 0.09 µM. Work on `CNc1ccc2c(C3=C(c4cn(C)c5cc(OC)ccc45)C(=O)NC3=O)cn(C)c2c1` [H H CH3 NH CH3 O, 3-(6-Methoxy-1-methyl-1H-indol-3-yl)-4-(1-methyl-6-methyl-amino-1H-indol-3-yl)-pyrrole-2,5-dione] yielded an IC50 of less than 0.01 µM. With `Cc1ccc2c(C3=C(c4cn(C)c5ccc(C#N)cc45)C(=O)NC3=O)cn(C)c2c1` [H CN H CH3, 3-[4-(1,6-Dimethyl-1H-indol-3-yl]-2,5-dioxo-2,5-dihydro-1H-pyrrol-3-yl]1-methyl-1H-indole-5-carbonitrile] the IC50 was 0.4 µM. In the case of `Cc1ccc2c(C3=C(c4cn(C)c5ccc(Cl)cc45)C(=O)NC3=O)cn(C)c2c1` [H Cl H CH3, 3-(5-Chloro-1-methyl-1H-indol-3-yl)-4-(1,6-dimethyl-1H-indol-3-yl)-pyrrole-2,5-dione], the IC50 is reported as 0.4 µM. `CCOc1ccc2c(C3=C(c4cn(C)c5cccc(Br)c45)C(=O)NC3=O)cn(C)c2c1` [Br H H EtO, 3-(4-Bromo-1-methyl-1H-indol-3-yl)-4-(6-ethoxy-1-methyl-1H-indol-3-yl)-pyrrole-2,5-dione] showed an IC50 of 0.2 µM. With `Cc1ccc2c(c1)c(C1=C(c3cn(C)c4cc(C)ccc34)C(=O)NC1=O)cn2C` [H CH3 H CH3, 3-(1,6-Dimethyl-1H-indol-3-yl)-4-(1,5-dimethyl-1H-indol-3-yl)-pyrrole-2,5-dione] the IC50 was 0.4 µM. Molecule `Cn1cc(C2=C(c3cn(C)c4cc([N+](=O)[O-])ccc34)C(=O)NC2=O)c2ccc(Cl)cc21` [H H NO2 Cl, 3-(6-chloro-1-methyl-1H-indol-3-yl)-4-(1-methyl-6-nitro-1H-indol-3-yl)-pyrrole-2,5-dione] has an IC50 of 0.07 µM. `COc1ccc2c(C3=C(c4cn(C)c5cc(OC)ccc45)C(=O)NC3=O)cn(C)c2c1` [H H OCH3 OCH3, 3,4-Bis-(6-methoxy-1-methyl-1H-indol-3-yl)-pyrrole-2,5-dione] showed an IC50 of 0.005 µM. `COc1ccc2c(C3=C(c4cn(C)c5cc(NC(C)=O)ccc45)C(=O)NC3=O)cn(C)c2c1` [H H CH3 CONH CH3 O, N-{3-[4-(6-Methoxy-1-methyl-1H-indol-3-yl)-2,5-dioxo-2,5-dihydro-1H-pyrrol-3-yl]-1-methyl-1H-indol-6-yl}-acetamide] was tested, and the IC50 was 0.07 µM. Work on `COc1ccc2c(C3=C(c4cn(C)c5cc(C#N)ccc45)C(=O)NC3=O)cn(C)c2c1` [H H CN OCH3, 3-[4-(6-methoxy-1-methyl-1H-indol-3-yl)-2,5-dioxo-2,5-dihydro-1H-pyrrole-3-yl]-1-methyl-indol-6-carbonitrile] yielded an IC50 of 0.005 µM. For `COc1cccc2c1c(C1=C(c3cn(C)c4cc([N+](=O)[O-])ccc34)C(=O)NC1=O)cn2C` [CH3 O H H NO2, 3-(4-Methoxy-1-methyl-1H-indol-3-yl)-4-(1-methyl-6-nitro-1H-indol-3-yl)-pyrrole-2,5-dione], the IC50 was 0.4 µM. Work on `Cn1cc(C2=C(c3cn(C)c4cc([N+](=O)[O-])ccc34)C(=O)NC2=O)c2cc(C#N)ccc21` [H CN H NO2, 1-Methyl-3-[4-(1-methyl-6-nitro-1H-indol-3-yl)-2,5-dioxo-2,5-dihydro-1H-pyrrol-3-yl]-1H-indole-5-carbonitrile] yielded an IC50 of 1 µM. In the case of `COc1ccc2c(c1)c(C1=C(c3cn(C)c4cc(OC)ccc34)C(=O)NC1=O)cn2C` [H CH3 O H CH3 O], the IC50 is reported as 0.07 µM.
